Calls of active or inactive are those of the source. No cut-off for these calls is given here.

The target in test [1] is T1, Sterol O-acyltransferase 1 (Homo sapiens, UniProt P35610).
T1 sequence (P35610 whole entry): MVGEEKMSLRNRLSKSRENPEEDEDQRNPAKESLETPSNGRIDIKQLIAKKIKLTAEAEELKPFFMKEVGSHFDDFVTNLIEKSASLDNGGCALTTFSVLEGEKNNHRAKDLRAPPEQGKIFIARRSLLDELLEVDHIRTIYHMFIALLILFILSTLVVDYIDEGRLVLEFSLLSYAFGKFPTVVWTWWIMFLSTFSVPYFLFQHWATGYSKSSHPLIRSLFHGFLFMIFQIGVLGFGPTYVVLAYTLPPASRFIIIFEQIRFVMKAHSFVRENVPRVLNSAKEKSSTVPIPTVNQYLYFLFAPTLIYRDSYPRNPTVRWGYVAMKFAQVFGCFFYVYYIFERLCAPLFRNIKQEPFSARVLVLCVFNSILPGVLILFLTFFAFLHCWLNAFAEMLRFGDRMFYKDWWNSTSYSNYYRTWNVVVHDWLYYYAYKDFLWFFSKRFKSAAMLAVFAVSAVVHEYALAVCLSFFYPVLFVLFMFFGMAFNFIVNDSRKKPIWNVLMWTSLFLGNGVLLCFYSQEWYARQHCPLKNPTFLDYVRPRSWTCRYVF
The experiment in a line: (§1) Inhibition of human ACAT1 expressed in Hi5 cells. Also on record: species or system BTI-TN-5B1-4.

The target in test [2] is T2, Sterol O-acyltransferase 2 (Homo sapiens, UniProt O75908).
T2 sequence (O75908 whole entry): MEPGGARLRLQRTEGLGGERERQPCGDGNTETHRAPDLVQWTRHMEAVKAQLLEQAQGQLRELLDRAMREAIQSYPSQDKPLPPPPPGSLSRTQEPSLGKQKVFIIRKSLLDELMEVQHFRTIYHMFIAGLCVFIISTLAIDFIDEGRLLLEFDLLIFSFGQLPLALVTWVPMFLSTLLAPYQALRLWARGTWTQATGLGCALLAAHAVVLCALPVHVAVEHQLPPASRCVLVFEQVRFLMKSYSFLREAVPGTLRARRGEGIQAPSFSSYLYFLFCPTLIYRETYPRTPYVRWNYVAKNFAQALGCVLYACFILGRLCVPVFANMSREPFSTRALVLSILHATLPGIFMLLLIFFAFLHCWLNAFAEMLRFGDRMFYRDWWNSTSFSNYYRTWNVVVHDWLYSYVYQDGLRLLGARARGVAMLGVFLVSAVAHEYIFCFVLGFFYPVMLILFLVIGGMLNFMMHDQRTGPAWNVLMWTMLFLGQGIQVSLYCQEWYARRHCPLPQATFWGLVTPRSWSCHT
The experiment in a line: Inhibition of human ACAT2 expressed in Hi5 cells. Also on record: species or system BTI-TN-5B1-4.

The target in test [3] is T3, Sterol O-acyltransferase 1 (Homo sapiens) (UniProt P35610).
T3 sequence (whole entry): T1 sequence (P35610 whole entry)
Described as §1. Conditions: BTI-TN-5B1-4.

In test [4] the test system is RAW. The experiment in a line: Inhibition of LPS-induced NO production in mouse RAW 264.7 cells after 18 hrs. The format is functional, cell-based.
Test [5] deals with RAW. As to the kind of experiment: Inhibition of LPS-induced iNOS protein expression in mouse RAW 264.7 cells at 5 uM. The format is functional, cell-based.
Test [6] deals with RAW. The experiment in a line: Effect on cell viability in mouse RAW 264.7 cells at 80 uM by MTT method. The format is functional, cell-based.
Test [7] has as its system RAW. The experiment in a line: Inhibition of LPS-induced iNOS protein expression in mouse RAW 264.7 cells at 10 uM. The format is functional, cell-based.
The test system of test [8] is RAW. As to the kind of experiment: Inhibition of LPS-induced iNOS protein expression in mouse RAW 264.7 cells at 20 uM. The format is functional, cell-based.
Test [9] relates to RAW. The experiment in a line: Inhibition of LPS-induced iNOS protein expression in mouse RAW 264.7 cells at 50 uM. The format is functional, cell-based.
Test [10] has as its system RAW. As to the kind of experiment: Inhibition of LPS-induced NO production in mouse RAW 264.7 cells at 50 uM after 18 hrs. The format is functional, cell-based.
A further test has as its system Plasma. As to the kind of experiment: Antioxidant activity against human plasma LDL oxidation by TBARS assay. The format is functional, cell-free.
The subject of test [11] is RAW. As to the kind of experiment: Effect on cell viability in mouse RAW 264.7 cells at 50 uM by MTT method. The format is functional, cell-based.

Consider `C=CC(C)(C)c1c(O)cc(O)c2c(=O)c3cc(O)c4c(c3oc12)C=CC(C)(C)O4`, for which the half-inhibitory concentration (IC50) in test [1] stood at 40 µM; in test [2] it was 28.8 µM.
Consider `C=CC(C)(C)c1c(OC)cc(O)c2c(=O)c3c(CC=C(C)C)c(O)c(O)cc3oc12` [CUDRAXANTHONE D], for which the IC50 in [2] amounted to 75.2 µM.
`CC(C)=CCc1c(O)c(O)cc2c(=O)c3c(O)c4c(cc3oc12)OC(C)C4(C)C` (configuration not stated) [CUDRAXANTHONE M] displayed an IC50 in test [2] of 23.2 µM.
Still for that read-out and setting: for `C=CC(C)(C)c1c(O)c(CC=C(C)C)c2oc3cc(O)c(O)cc3c(=O)c2c1O` [MACLURAXANTHONE B] the value was 112 µM.
The same measure, in the same setting: for `C=CC(C)(C)c1c(O)cc2oc3c(CC=C(C)C)c(O)c(O)cc3c(=O)c2c1O` [CUDRAXANTHONE L] the value was 74.4 µM; for `C=CC(C)(C)c1c(OC)cc(O)c2c(=O)c3ccc(O)c(O)c3oc12` [ISOCUDRANIAXANTHONE B], 133 µM.
In the case of `CC(C)=CCc1c(-c2ccc(O)cc2O)oc2cc3c(c(O)c2c1=O)C=CC(C)(C)O3` [CUDRAFLAVONE B], the outcome (in [3]; in the test with RAW [6]) was inactive. Besides, the half-inhibitory concentration (IC50) in test [2] was found to be 41.6 µM. In addition, the Activity entry in the test with RAW [4] is “Dose-dependent effect”. In addition, the result in the test with RAW [5], in the test with RAW [7], with RAW [8] and in the test on RAW [9] was Active.
As to `CC(C)=CCc1cc([C@@H]2CC(=O)c3c(cc(O)c(CC=C(C)C)c3O)O2)c(O)cc1O`, the result (in test [3]; in the test with RAW [6]) was inactive. In addition, in test [2], inhibition was half-maximal at 89.6 µM (IC50). Also, the result with RAW [10], with RAW [4], in the test with RAW [5], in the test with RAW [7], in the test with RAW [8] and in the test with RAW [9] was Active.
Turning to `CC1(C)C=Cc2c(cc3oc(-c4ccc(O)cc4O)cc(=O)c3c2O)O1`, the outcome in test [3] was inactive. This compound came in with an IC50 in test [2] of 77.6 µM.
As for `CC(C)=CCc1c(O)cc2c(c1O)C(=O)C[C@@H](c1cc3c(cc1O)OC(C)(C)C=C3)O2` [CUDRAFLAVANONE A], half-maximal inhibition in test [2] (IC50) was put at 24.8 µM.
Turning to `C=CC(C)(C)c1c(O)cc(O)c2c(=O)c3c(CC=C(C)C)c(OC)c(O)cc3oc12` [CUDRAXANTHONE C], in the test on Plasma, the outcome was inactive. The compound further showed an IC50 in test [2] of 19.2 µM.
`CC(C)(O)CCc1c(O)cc(O)c2c1O[C@H](c1cc3c(cc1O)OC(C)(C)C=C3)CC2=O` displayed an IC50 in test [2] of 44.8 µM. The result with RAW [10], in the test on RAW [4], in the test with RAW [5], with RAW [7], in the test with RAW [8] and in the test with RAW [9] was Active. In the test with RAW [11], the result was inactive.

The record behind these values is ChEMBL document CHEMBL1139676, “Anti-atherosclerotic and anti-inflammatory activities of catecholic xanthones and flavonoids isolated from Cudrania tricuspidata” (Bioorg Med Chem Lett, 2006).
